Results as given in ChEMBL document CHEMBL3832064, “DailyMed|setid=5eda246b-ac51-46e7-b473-35937f84ed05 | GLIMEPIRIDE - glimepiride tablet|Perrigo New York Inc”.
Values joined by “and” are separate entries in the source; they are usually repeats but may differ in a detail not shown here. Equal entries are not always repeated.

Assays:
Assay type in all cases: ADME, organism-based
[1] = (§1) Evalaution of pharmacokinetic parameters for Glimepiride following single oral […] of Glimepiride tablets […] to healthy subjects and to patients with type 2 diabetes.; design: dose 4 mg, dose 1 mg, dose 2 mg, dose 8 mg, route oral; settings: human, in vivo, dosed compound id 27, dosed compound name GLIMEPIRIDE, regimen Single dose, tissue Plasma
Homo sapiens [2] = assay: as §1; design: dose 4 mg, dose 1 mg, dose 2 mg, dose 8 mg, route oral; settings: in vivo, po, dosed compound id 27, dosed compound name GLIMEPIRIDE, regimen Single dose, tissue Plasma
[3] = Pharmacokinetic parameters evaluated following intravenous […] of Glimepiride […] to normal subjects.; settings: human, in vivo, dosed compound id 27, dosed compound name GLIMEPIRIDE, tissue Plasma
[4] = (§2) Evalaution of pharmacokinetic parameters for Glimepiride following multiple doses of Glimepiride […] to healthy subjects and to patients with type 2 diabetes; design: dose 4 mg, dose 8 mg, route oral; settings: human, in vivo, dosed compound id 27, dosed compound name GLIMEPIRIDE, regimen Multiple dose, study dosing duration 10 days, tissue Plasma
Homo sapiens [5] = species on record: Homo sapiens; assay: as §2; design: dose 4 mg, dose 8 mg, route oral; settings: in vivo, po, dosed compound id 27, dosed compound name GLIMEPIRIDE, regimen Multiple dose, study dosing duration 10 days, tissue Plasma
[6] = dose 1-8 mg, study dosing duration 1 day

AUC ([1]; po, gender male and female, read-out: AUC(0-last)): 339 ng·h/mL
half-life ([1]; dose 1 mg, gender male and female, route oral): 3.1 h
CL/F ([1]; dose 1-8 mg, route oral): 52.1 mL/min
Tmax ([1]; dose 1-8 mg, route oral): 2.4 h
Vd/F ([1]; dose 1-8 mg, route oral): 21.8 L
t1/2 (Homo sapiens [2]; dose 1 mg, gender male and female): 5.3 h
CL/F (Homo sapiens [2]; [6]): 48.5 mL/min
Tmax (Homo sapiens [2]; [6]): 2.5 h
Vd/F (Homo sapiens [2]; [6]): 19.8 L
t1/2 (Homo sapiens [2]; [6]): 5 h
AUC(0-last) (Homo sapiens [2]; gender male and female): 315.2 ng·h/mL
Cmax (Homo sapiens [2]; gender male and female): 102.4 ng/mL and 103.2 ng/mL
Cmax (Homo sapiens [2]; study dosing duration 1 day): 352 ng/mL and 591 ng/mL
Vd [3]: 8.8 L
clearance [3]: 47.8 mL/min
Cmax ([4]; po): 578 ng/mL
CL/F ([4]; dose 1-8 mg, route oral): 52.7 mL/min
Tmax ([4]; dose 1-8 mg, route oral): 2.8 h
Vd/F ([4]; dose 1-8 mg, route oral): 37.1 L
half-life ([4]; dose 1-8 mg, route oral): 9.2 h
Cmax (Homo sapiens [5]): 309 ng/mL
SMILES: CCC1=C(C)CN(C(=O)NCCc2ccc(S(=O)(=O)NC(=O)N[C@H]3CC[C@H](C)CC3)cc2)C1=O [GLIMEPIRIDE]
